From ChEMBL document CHEMBL1201862, “PubChem BioAssay data set” (2004) come the findings set out here.

The source made the active and inactive calls. Bounds are passed on as bounds.

Assay [1] is described as follows: Late stage assay provider results from the probe development effort to identify inhibitors of the Plasmodium falciparum M17 Leucine Aminopeptidase (M17LAP): radiolabel-based cell-based dose response assay to identify compounds that inhibit P. falciparum growth in RBCs Set 2. Format: functional.
Assay [2] is described as follows: IRAP inhibitors, dose response, selectivity assay for ERAP1 modulator project, biochemical, Leu-AMC fluorescence, cherry-picked samples, set 2 (AID 743340).
The test system of assay [3] is HEK293. Description: NOD1 signaling inhibitors, primary screen, cell-based, luminescence, uHTS (AID 1578). The conditions noted are these: Homo sapiens. Format: functional.
In another assay the target is Tumor necrosis factor (Homo sapiens, UniProt P01375). Nature of the assay: TNFa-triggered NF-kB activation inhibitors, SAR follow-up, cell-based, revised (AID 2337). Format: functional.
Chain of Tumor necrosis factor (P01375 whole entry): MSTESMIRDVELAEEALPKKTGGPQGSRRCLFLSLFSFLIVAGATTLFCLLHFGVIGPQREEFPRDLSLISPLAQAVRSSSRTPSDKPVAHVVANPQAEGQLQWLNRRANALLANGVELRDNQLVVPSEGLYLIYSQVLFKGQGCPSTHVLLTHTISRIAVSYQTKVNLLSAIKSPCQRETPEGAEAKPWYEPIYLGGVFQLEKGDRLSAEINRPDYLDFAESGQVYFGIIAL
The test system of assay [4] is HEK293. Nature of the assay: NOD2 signaling inhibitors in MDP-stimulated cells, cell-based, uHTS, luminescence (AID 2001). Format: functional. As to conditions: Homo sapiens.
Assay [5] is described as follows: off-target signal loss in HeLa-CEM21 co-culture – HeLa F-luc CTL cells, cherry-picked, counter-screen for HIV-1 Env fusion inhibitor project, dose response (AID 652040).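 Also: potency for signal decrease marking cytotoxic or nonspecific inhibition.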 Format: functional, cell-based. (A counterscreen serves to expose hits that act by an unwanted route or on another target.)
Assay [6] concerns HEK293. Nature of the assay: cells. Format: functional, cell-based. As to conditions: Homo sapiens.
In assay [7] the test system is HEK293. Nature of the assay: cells. As to conditions: Homo sapiens.
Another assay in a line: cells. Format: functional, cell-based. As to conditions: HEK-CNG.
Assay [8] concerns the target Eukaryotic translation initiation factor 4E (Mus musculus, UniProt P63073). Description: eIF4E–eIF4G protein interaction inhibitors, dose response, biochemical, TR-FRET (AID 855).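 Also: potency for disrupting eIF4E binding to eIF4GI seen as loss of FRET.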 Format: functional. Background: TR-FRET usually uses a lanthanide donor and a delayed reading to cut background.
In the next assay the test system is Jurkat. Description: antigen receptor-induced NF-kB inhibitors, dose response, Jurkat, luciferase reporter, luminescence, B- and T-cell (AID 489004).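 Also: NF-kB luciferase reporter Jurkat cells stimulated with PMA plus ionomycin.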 Format: functional, cell-based. The conditions noted are these: Homo sapiens. (In general: A reporter such as luciferase makes a cellular process visible.)
The next assay has as its target Galanin receptor type 3 (Homo sapiens, UniProt O60755). Nature of the assay: Fluorescence-based cell-based primary high throughput dose response assay to identify antagonists of the Galanin Receptor 3 (GalR3). Format: functional.
Assay [9] in a line: cytotoxicity in HEK-293T NF-kB-Luc cells, dose response, cytotoxicity control for B/T-cell NF-kB inhibitor project, cell-based, uHTS hits (AID 489019).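 Also: IC50 reflects cytotoxicity as loss of cell viability.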 Format: functional.
Assay [10] has as its target Nucleotide-binding oligomerization domain-containing protein 1 (Homo sapiens, UniProt Q9Y239). Nature of the assay: NOD1 signaling inhibitors, SAR follow-up, revised (AID 2333). Format: functional.
Assay [11] has as its system HEK293. Nature of the assay: cells. Format: functional, cell-based. As to conditions: Homo sapiens. This is another data set of the same source.
Assay [12] is described as follows: inhibitors of clade B AD8 Env fusion, dose response, cell-based, cherry-pick (AID 652062).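 Also: luciferase signal from cell-cell fusion driven by HIV-1 clade B AD8 Env; potency is for inhibitors of fusion seen as a drop in luminescence.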 Format: functional.
Assay [13] has as its system Cryptococcus neoformans. Description: Cryptococcus growth inhibition by alamar blue – cell lysis, cherry-picks, replicate tests, mechanism study for C. neoformans antifungal project, dose response (AID 686999). Format: functional, organism-based.
Assay [14] has as its system Cryptococcus neoformans. Nature of the assay: PubChem AID 686997. Format: functional, organism-based.
A short description of assay [15]: HepG2 cell cytotoxicity, dose response, cytotoxicity control, ATP luminescence, cherry-pick, activator set 2 (AID 1053143). Format: functional, cell-based.
In assay [16] the target is Intestinal-type alkaline phosphatase (Homo sapiens, UniProt P09923). Description: human intestinal alkaline phosphatase activators, dose response, biochemical, luminescence, uHTS hits (AID 463120). Format: functional.
Chain of Intestinal-type alkaline phosphatase (P09923 whole entry): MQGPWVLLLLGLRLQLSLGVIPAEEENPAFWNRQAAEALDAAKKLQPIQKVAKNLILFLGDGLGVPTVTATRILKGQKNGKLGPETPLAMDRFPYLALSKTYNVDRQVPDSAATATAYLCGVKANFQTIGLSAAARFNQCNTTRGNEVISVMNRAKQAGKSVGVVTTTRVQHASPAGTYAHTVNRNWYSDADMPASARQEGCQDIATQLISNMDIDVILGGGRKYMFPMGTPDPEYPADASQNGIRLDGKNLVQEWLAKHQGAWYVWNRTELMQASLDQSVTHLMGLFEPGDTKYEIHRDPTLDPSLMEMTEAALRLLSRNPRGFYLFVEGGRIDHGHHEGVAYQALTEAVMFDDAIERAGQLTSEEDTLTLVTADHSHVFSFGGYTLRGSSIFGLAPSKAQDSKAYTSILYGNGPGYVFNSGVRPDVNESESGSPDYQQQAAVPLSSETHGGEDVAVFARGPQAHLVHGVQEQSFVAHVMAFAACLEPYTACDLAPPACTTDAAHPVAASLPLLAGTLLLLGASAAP
Assay [17] in a line: reduction of Shn3 3'UTR firefly luciferase signal, dose response, Schnurri-3 inhibitor project, cell-based, Clone20 osteoblasts, cherry-pick, set 2 (AID 720490).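 Also: actives lower the luminescence signal as inhibitors.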 Format: functional.
The nature of assay [18]: Shn3 3'UTR reporter inhibitors, dose response, cell-based, Clone20 osteoblasts, firefly luciferase, cherry-picked (AID 624132).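 Also: firefly luciferase luminescence from reporter carrying the Shn3 3'UTR in osteoblasts.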 Format: functional.
Assay [19] in a line: inhibitors of control Renilla luciferase reporter, dose response, counter-screen for Shn3 3'UTR targeting project, Clone20-Shn3RL cells, dual-Glo, cherry-pick, set 2 (AID 720724). Format: functional, cell-based. The conditions noted are these: Dual-Go Shn3RL.
Assay [20] is described as follows: HepG2 cell cytotoxicity, dose response, cytotoxicity control for Shn3 inhibitor project, CellTiter-Glo, cherry-picked (AID 624134). Format: functional, cell-based.
Assay [21] can be described thus: control 3'UTR Renilla luciferase suppression, dose response, counter-screen for Shn3 inhibitor project, cell-based, Clone20-Shn3RL, cherry-picked (AID 624133). Format: functional.
A short description of assay [22]: NIH:OVCAR-3 ovarian cancer cell cytotoxicity, dose response, PAX8 inhibitor project, plate reader, dry powder samples (AID 743044). Format: functional, cell-based.
The nature of assay [23]: PAX2 cell-based inhibition, dose response, selectivity assay for PAX8 inhibitor project, plate reader, dry powder samples (AID 743048).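 Also: HEK293 cells carrying a WT1 promoter luciferase reporter driven by expressed Pax2; potency is for inhibition of Pax2 driven reporter signal.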 Format: functional.
A short description of assay [24]: cytotoxicity in COV362 ovarian cancer cells, dose response, cytotoxicity control for PAX8 inhibitor project, cell-based, plate reader, dry powder, SA12 (AID 743144). Format: functional.
Assay [25] can be described thus: cytotoxicity in OV-90 ovarian cancer cells, dose response, PAX8 inhibitor project, cell-based, plate reader, dry powder, SA8 (AID 743149). Format: functional.
Assay [26] is described as follows: cytotoxicity in COV434 cells, dose response, cytotoxicity control for PAX8 inhibitor project, cell-based, plate reader, dry powder, SA7 (AID 743145). Format: functional.
The nature of assay [27]: PAX5 activity inhibitors, dose response, selectivity assay for PAX8 inhibitor project, cell-based, plate reader, dry powder samples (AID 743047).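 Also: HEK293 cells carrying a Pax5 driven CD19 promoter luciferase reporter; potency of inhibitors that lower reporter luminescence.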 Format: functional.
Assay [28] is described as follows: IGROV1 ovarian cancer cell cytotoxicity, dose response, PAX8 inhibitor project, plate reader, dry powder samples (AID 743043). As to conditions: IGROV-1. Format: functional, cell-based.
Assay [29] in a line: cytotoxicity in OVCAR4 cells, dose response, cytotoxicity control for PAX8 inhibitor project, cell-based, plate reader, dry powder, SA11 (AID 743150). Format: functional. As to conditions: OVCAR-4.
A short description of assay [30]: IOSE-T80 ovarian epithelial cell cytotoxicity, dose response, cytotoxicity control for PAX8 inhibitor project, plate reader, dry powder samples (AID 743045). Format: functional, cell-based.
Assay [31] can be described thus: cytotoxicity dependent on PAX8, dose response, cell-based, plate reader, dry powder (AID 743049). Format: functional.
Assay [32] can be described thus: MITF: Counter assay: A375 proliferation Measured in Cell-Based System Using Plate Reader - 2084-03_Inhibitor_Dose_DryPowder_Activity_Set8. Format: functional. As to conditions: A-375.
A short description of assay [33]: MITF Orthogonal Assay: SK-MEL-5 CTG Assay Measured in Cell-Based System Using Plate Reader - 2084-02_Inhibitor_Dose_DryPowder_Activity_Set7. Format: functional.
Assay [34] is described as follows: TRPM1 promoter luciferase reporter signal decrease, dose response, MITF inhibitor project, cell-based, SK-MEL-5, dry powder, set 8 (AID 624430). Format: functional.

Chain of Galanin receptor type 3 (O60755 whole entry): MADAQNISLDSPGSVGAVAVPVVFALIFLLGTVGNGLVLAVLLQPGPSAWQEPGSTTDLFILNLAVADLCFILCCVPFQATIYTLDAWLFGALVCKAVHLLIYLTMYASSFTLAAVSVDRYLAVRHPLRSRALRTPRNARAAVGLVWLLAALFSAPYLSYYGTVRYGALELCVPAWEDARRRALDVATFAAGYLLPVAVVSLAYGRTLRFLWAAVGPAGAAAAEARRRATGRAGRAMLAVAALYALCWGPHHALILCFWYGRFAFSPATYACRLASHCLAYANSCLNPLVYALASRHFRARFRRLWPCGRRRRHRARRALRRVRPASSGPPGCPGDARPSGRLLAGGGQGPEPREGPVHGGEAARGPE
Chain of Eukaryotic translation initiation factor 4E (P63073 whole entry): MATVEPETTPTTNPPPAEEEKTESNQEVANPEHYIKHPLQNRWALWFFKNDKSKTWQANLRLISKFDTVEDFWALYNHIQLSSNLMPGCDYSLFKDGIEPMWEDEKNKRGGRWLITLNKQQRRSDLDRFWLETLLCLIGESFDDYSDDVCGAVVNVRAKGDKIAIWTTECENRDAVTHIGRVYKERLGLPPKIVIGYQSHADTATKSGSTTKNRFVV
Chain of Nucleotide-binding oligomerization domain-containing protein 1 (Q9Y239 whole entry, the tested form may be a part): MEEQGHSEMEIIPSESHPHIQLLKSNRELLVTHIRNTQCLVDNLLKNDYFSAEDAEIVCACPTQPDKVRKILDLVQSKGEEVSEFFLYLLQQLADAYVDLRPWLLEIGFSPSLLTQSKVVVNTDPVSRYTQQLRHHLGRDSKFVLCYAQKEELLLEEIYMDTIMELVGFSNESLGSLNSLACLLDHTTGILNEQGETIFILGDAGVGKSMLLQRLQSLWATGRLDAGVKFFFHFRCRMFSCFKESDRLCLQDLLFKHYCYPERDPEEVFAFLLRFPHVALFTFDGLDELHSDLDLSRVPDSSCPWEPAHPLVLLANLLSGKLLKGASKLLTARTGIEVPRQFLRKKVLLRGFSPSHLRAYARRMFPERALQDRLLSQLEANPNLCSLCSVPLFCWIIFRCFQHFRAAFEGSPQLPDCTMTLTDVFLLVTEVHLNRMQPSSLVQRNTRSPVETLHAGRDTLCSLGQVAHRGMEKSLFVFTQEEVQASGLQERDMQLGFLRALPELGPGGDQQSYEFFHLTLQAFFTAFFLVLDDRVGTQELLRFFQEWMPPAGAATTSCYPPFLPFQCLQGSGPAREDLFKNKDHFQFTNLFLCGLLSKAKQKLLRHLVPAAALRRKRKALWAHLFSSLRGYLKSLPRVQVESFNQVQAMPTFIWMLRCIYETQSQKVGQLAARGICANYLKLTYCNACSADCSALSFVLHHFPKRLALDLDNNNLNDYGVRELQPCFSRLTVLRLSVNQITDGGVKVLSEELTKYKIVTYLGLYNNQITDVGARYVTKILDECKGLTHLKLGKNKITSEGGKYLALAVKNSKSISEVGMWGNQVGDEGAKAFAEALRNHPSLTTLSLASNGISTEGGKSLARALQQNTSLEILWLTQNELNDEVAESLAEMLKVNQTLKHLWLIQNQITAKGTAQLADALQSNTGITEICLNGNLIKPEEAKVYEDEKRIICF

As to `COc1ccc(CC(=O)NO)cc1`, in assay [1], the IC50 (in general, the point on the concentration scale where inhibition reaches its midpoint) was 20 µM (inactive).

Turning to `C[C@@H]1CCCCO[C@@H](CN(C)S(C)(=O)=O)[C@@H](C)CN([C@@H](C)CO)C(=O)c2cc(NS(=O)(=O)c3ccc(Cl)cc3)ccc2O1`, the AC50 (usually the concentration at which the activity in the assay is half-maximal) in assay [2] is 17.6 µM (active).

On to `CCCCCn1c(=O)[nH]c2cc(C(=O)N3CCN(Cc4ccc5c(c4)OCO5)CC3)ccc2c1=O`, for which the EC50 (in general, the concentration giving half of the maximal effect) in the assay with HEK293 [3] was 0.36 µM (active); in “cells”, > 29.9 µM (inactive). Moreover, the IC50 was 1.18 µM (active) on Tumor necrosis factor; 1.27 µM (active) with HEK293 [4]; 8.7 µM (active) in the assay with HEK293 [6]; > 20 µM (inactive) in the assay on HEK293 [7]; > 64 µM (inactive) in assay [8]; > 80 µM (inactive) in the assay with Jurkat. The IC50 at Galanin receptor type 3 was 0.148 µM (active); in assay [9], > 80 µM (inactive); in assay [10] it was 0.771 µM (active); in the assay with HEK293 [11], 0.97 µM (active). Further, the values for the AC50 in assay [5] and in assay [12] were > 70 µM (inactive) and < 0.26 µM (active), respectively.

For `COC(=O)C1=C(C)N(Cc2ccc(Cl)cc2)C(=S)NC1c1ccc(F)cc1` (centres undefined), the AC50 with Cryptococcus neoformans [13] was 43 µM (active); in the assay on Cryptococcus neoformans [14], 35.4 µM (active); in the assay on Cryptococcus neoformans [14] (Cryptococcus neoformans), 23.6 µM (active).

Consider `c1ccc(Nc2ccnc(Nc3ccccc3)n2)cc1`, for which, in assay [15], the AC50 was 26 µM (active). In [16], the EC50 was > 100 µM (inactive).

For `CC1CCCC(NC(=O)c2cccc(S(=O)(=O)N3CCN(c4ccccc4)CC3)c2)C1C` (centres undefined), the AC50 in [17] is 4.29 µM (active); in assay [18], 3.14 µM (active); in [19], 25.2 µM (active); in assay [20], > 70 µM (inactive); in [21], > 70 µM (inactive).

Turning to `O=C(CCCN1C(=O)/C(=C\c2ccccc2OC(F)F)SC1=S)Nc1cccnc1`, the AC50 in [22] is 21.6 µM (active); in assay [23] it was > 100 µM (inactive); in [24], 18.1 µM (active); in [25] it was 46.2 µM (active); in [26], 34.5 µM (active); in assay [27], 81 µM (active). The AC50 is 9.15 µM (active) in assay [28], 14.8 µM (active) in assay [29], 46.9 µM (active) in assay [30] and 7.44 µM (active) in [31].

Consider `CN1CCN(C2=C(Nc3cccc(Cl)c3)C(=O)c3ccccc3C2=O)CC1`, for which the AC50 in [32] is 30.7 µM (active); in assay [33] it was 11.1 µM (active); in [34] it was 5.11 µM (active).
